Assay results published in patent US12545668B2, “Cyclic amine derivative as agent for promoting advillin function, and novel cyclic amine derivative and pharmaceutical use thereof” (Toray Industries, Inc., priority 2018, dated 2026).

Assays:
[1] = test system: F11 cells (rat dorsal root ganglion neuron cell line); test: Effect of decreasing intracellular actin filaments in F11 cells with oxaliplatin-induced axonal injury (phalloidin staining); assay type: cell-based; settings: 5 days; for inhibition at 10 µM: F-11 rat/mouse fusion cell line, F11, 120 h, compound 10 μM with oxaliplatin 15 μM, compared to oxaliplatin alone treated group, average of five samples, read-out: Decreasing Rate of Intracellular Actin Filament (%)
Source text: The effect of the cyclic amine derivative (I) or a pharmacologically acceptable salt thereof on the amount of intracellular actin filaments in F11 cells (rat dorsal root ganglion neuron cell line) was examined.
As test compounds, the compounds of Examples 1, 2, 3, 4, 5, 6, 7, 8, and 9 were used.
As compounds of comparative examples, 1-(4-(dimethylamino)piperidin-1-yl)-3-(1-ethyl-1H-imidazol-2-yl)-3-hydroxypropan-1-one (hereinafter, the compound of Comparative Example 1), 1-(4-(dimethylamino)piperidin-1-yl)-3-hydroxy-3-(1-(2,2,2-trifluoroethyl)-1H-imidazol-2-yl)propan-1-one (hereinafter, the compound of Comparative Example 2), 1-((R)-3-(dimethylamino)pyrrolidin-1-yl)-3-hydroxy-3-(1-methyl-1H-imidazol-2-yl)propan-1-one (hereinafter, the compound of Comparative Example 3), and 1-((R)-[…]-3-hydroxy-3-(1-methyl-1H-imidazol-2-yl)propan-1-one (hereinafter, the compound of Comparative Example 4) shown in Table 4 were used. The compounds of Comparative Examples 1, 2, 3, and 4 were synthesized in accordance with methods described in International Publication No. WO2016/136944.
For peeling the F11 cells off from a culture flask, 0.25% Trypsin/EDTA (manufactured by Thermo Fisher Scientific K.K.) was added to the cells, followed by incubation at room temperature for several minutes. Thereafter, 10% fetal bovine serum-containing DMEM medium (manufactured by Thermo Fisher Scientific K.K.) was added thereto for suspension, and the resultant centrifuged at 1,500 rpm for 1 minute. After removing the resultant centrifugal supernatant, 0.5% fetal bovine serum-containing DMEM medium was added thereto for suspending cells therein, and the resultant seeded in a poly-D-lysine-coated 96 well plate (manufactured by BD Biosciences) coated with laminin (2 μg/cm^2, manufactured by Sigma Aldrich) to be cultured at 37° C. under an environment of 5% CO2. Two hours after seeding the cells, N,N-dibutyladenosine 3′,5′-phosphate (final concentration 1 mM, manufactured by Sigma Aldrich) and recombinant rat GDNF (final concentration 50 ng/mL, manufactured by PeproTech) were added thereto to culture the cells at 37° C. under an environment of 5% CO2 for 7 days for differentiation.
Seven days after starting the culture, the medium was exchanged with 0.5% fetal bovine serum-containing DMEM medium containing oxaliplatin (final concentration 15 μM), and the resultant cultured for 5 days to induce axonal injury. Each of the compounds of Examples and Comparative Examples was caused to be contained in the medium (final concentration 10 μM) for treatment in the same manner as oxaliplatin.
Five days after treatment with oxaliplatin and each of the compounds, the resultant cells were washed with PBS(−) three times, a 4% paraformaldehyde-phosphate buffer (manufactured by Wako Pure Chemical Industries Ltd.) was added thereto, and the resultant allowed to stand still at room temperature for 10 minutes to fix the cells. Acti-stain 670 phalloidin (manufactured by Cytoskeleton Inc.) was added thereto, and the resultant incubated at room temperature for 30 minutes to stain actin filaments. An image of the cells was acquired using IN Cell Analyzer 2200 (manufactured by GE Healthcare), and the image analyzed using IN Cell Investigator Developer Toolbox. The amount of intracellular actin filaments was indicated by the amount of fluorescence (density) of fluorescent-labeled phalloidin binding to the actin filaments.
In a group treated with oxaliplatin alone (hereinafter, the oxaliplatin alone treated group), the amount of intracellular actin filaments increased by 5% compared to that in a group not treated with oxaliplatin. […] A decreasing rate of intracellular actin filaments, caused by each compound compared to the amount of intracellular actin filaments of the oxaliplatin alone treated group was calculated. […]

[2] = test system: primary cultured cells of rat dorsal root ganglion; test: Axon (neurite) extension in primary cultured cells of rat dorsal root ganglion with oxaliplatin-induced axonal injury; assay type: cell-based; settings: oxaliplatin alone 3 μM, 7 days; p<0.05
Source text: The effect of the cyclic amine derivative (I) or a pharmacologically acceptable salt thereof on neurite extension in primary cultured cells of rat dorsal root ganglion was examined.
Male SD rats (manufactured by Charles River Laboratories Japan, Inc.) of 4 to 7 weeks old were used. Each rat was anesthetized by intraperitoneally administering urethane. After confirming that the rat was anesthetized, the rat was rapidly euthanized by exsanguination from the abdominal aorta. After incision of the dorsal part, the spinal column was excised and cooled on ice. The dorsal side of the spinal column was cut off, and the spinal cord was removed from the ventral side of the spinal column to expose the dorsal root ganglia on the ventral side of the spinal column. The dorsal root ganglia (L3 to 6, right and left) were excised with tweezers, and dipped in ice-cold Leibovitz's L-15 medium (manufactured by Thermo Fisher Scientific), and the bundles of nerve fibers were removed under a stereoscopic microscope. The dorsal root ganglia from which the bundles of nerve fibers had been removed were made fine slits with ophthalmic scissors to be used as dorsal root ganglion pieces.
The dorsal root ganglion pieces were dipped in about 3 mL of a solution of collagenase A (manufactured by Roche Molecular Systems, Inc.), followed by incubation at 37° C. for 20 minutes. After the incubation, the resultant was centrifuged at 200×g at 25° C. for 5 minutes to remove a collagenase A solution corresponding to the supernatant. About 1 mL of a solution of trypsin was added thereto, followed by incubation at 37° C. for 5 minutes. Subsequently, about 3 mL of DMEM (manufactured by Thermo Fisher Scientific K.K.) containing 10% fetal bovine serum was added to the resultant, the resultant centrifuged at 200×g at room temperature for 5 minutes, and then the supernatant removed. […]

Compound | inhibition at 10 µM [1] [%] | increase of the amount of intracellular actin filaments compared to a group not treated with oxaliplatin ([1]; oxaliplatin alone 15 μM, p<0.05) [%] | length of a neurite compared to the non-treated group [2]
CN(C)C1CCN(C(=O)CC(O)c2nccn2CC(F)(F)F)CC1 (stereo not shown) [Comparative Example 2, 1-(4-(dimethylamino)piperidin-1-yl)-3-hydroxy-3-(1-(2,2,2-trifluoroethyl)-1H-imidazol-2-yl)propan-1-one, reference compound] | ≤ 5 |  | 
CN(C)[C@@H]1CCCN(C(=O)CC(O)c2nccn2C)C1 (stereo partly shown) [Comparative Example 4, reference compound] | ≤ 5 |  | 
Cn1ccnc1C(O)CC(=O)N1CCC(N2CCOCC2)CC1 (stereo not shown) [Example 1, 3-hydroxy-3-(1-methyl-1H-imidazol-2-yl)-1-(4-morpholinopiperidin-1-yl)propan-1-one] | ≥ 5 |  | 
CC(C)n1ccnc1C(O)CC(=O)N1CCC(N(C)C)CC1 (stereo not shown) [Example 3, 1-(4-(dimethylamino)piperidin-1-yl)-3-(1-isopropyl-1H-imidazol-2-yl)-3-hydroxypropan-1-one] | ≥ 5 |  | 
CN(C)C1CCN(C(=O)CC(O)c2ncc(Cl)n2C)CC1 (stereo not shown) [Example 4, 3-(5-chloro-1-methyl-1H-imidazol-2-yl)-1-(4-(dimethylamino)piperidin-1-yl)-3-hydroxypropan-1-one] | ≥ 5 |  | 
COCCn1ccnc1C(O)CC(=O)N1CCC(N(C)C)CC1 (stereo not shown) [Example 5, 1-(4-(dimethylamino)piperidin-1-yl)-3-(1-(2-methoxyethyl)-1H-imidazol-2-yl)-3-hydroxypropan-1-one] | ≥ 5 |  | 
CN(C)C1CCN(C(=O)CC(O)c2nccn2CCC(F)(F)F)CC1 (stereo not shown) [Example 6, 1-(4-(dimethylamino)piperidin-1-yl)-3-(1-(3,3,3-trifluoropropyl)-1H-imidazol-2-yl)-3-hydroxypropan-1-one] | ≥ 5 |  | 
CN1CCN(C2CCN(C(=O)CC(O)c3nccn3C)CC2)CC1 (stereo not shown) [Example 8, 3-hydroxy-3-(1-methyl-1H-imidazol-2-yl)-1-(4-(4-methylpiperazin-1-yl)piperidin-1-yl)propan-1-one] | ≥ 5 |  | 
O=C1[O][Pt]2([NH][C@@H]3CCCC[C@H]3[NH]2)[O]C1=O [oxaliplatin, reference compound] |  | 5 | significantly reduced
